Experimental data: ChEMBL document CHEMBL3734705, “Synthesis and in vitro cytotoxicity of novel C-12 substituted-14-deoxy-andrographolide derivatives as potent anti-cancer agents” (2015)

Legend:
[1] = Cytotoxicity against human MOLT4 cells assessed as growth level at 10 uM after 48 hrs by SRB assay; format: functional, MOLT-4
[2] = test system: A549; assay: Cytotoxicity against human A549 cells assessed as growth level at 10 uM after 48 hrs by SRB assay; format: functional
[3] = test system: EKVX; assay: Cytotoxicity against human EKVX cells assessed as growth level at 10 uM after 48 hrs by SRB assay; format: functional
[4] = test system: NCI-H226; assay: Cytotoxicity against human NCI-H226 cells assessed as growth level at 10 uM after 48 hrs by SRB assay; format: functional
[5] = test system: NCI-H322M; assay: Cytotoxicity against human NCI-H322M cells assessed as growth level at 10 uM after 48 hrs by SRB assay; format: functional
[6] = test system: NCI-H460; assay: Cytotoxicity against human NCI-H460 cells assessed as growth level at 10 uM after 48 hrs by SRB assay; format: functional
[7] = Cytotoxicity against human HCT15 cells assessed as growth level at 10 uM after 48 hrs by SRB assay; format: functional, HCT-15
[8] = test system: KM12; assay: Cytotoxicity against human KM12 cells assessed as growth level at 10 uM after 48 hrs by SRB assay; format: functional
[9] = Cytotoxicity against human SF539 cells assessed as growth level at 10 uM after 48 hrs by SRB assay; format: functional, SF-539
[10] = test system: Malme-3M; assay: Cytotoxicity against human MALME-3M cells assessed as growth level at 10 uM after 48 hrs by SRB assay; format: functional
[11] = test system: SK-MEL-28; assay: Cytotoxicity against human SK-MEL-28 cells assessed as growth level at 10 uM after 48 hrs by SRB assay; format: functional
[12] = Cytotoxicity against human UACC62 cells assessed as growth level at 10 uM after 48 hrs by SRB assay; format: functional, UACC-62
[13] = Cytotoxicity against human OVCAR5 cells assessed as growth level at 10 uM after 48 hrs by SRB assay; format: functional, OVCAR-5
[14] = Cytotoxicity against human SKOV3 cells assessed as growth level at 10 uM after 48 hrs by SRB assay; format: functional, SK-OV-3
[15] = Cytotoxicity against human RXF393 cells assessed as growth level at 10 uM after 48 hrs by SRB assay; format: functional, RXF 393
[16] = test system: SN12C; assay: Cytotoxicity against human SN12C cells assessed as growth level at 10 uM after 48 hrs by SRB assay; format: functional
[17] = Cytotoxicity against human TK10 cells assessed as growth level at 10 uM after 48 hrs by SRB assay; format: functional, TK-10
[18] = Cytotoxicity against human UO31 cells assessed as growth level at 10 uM after 48 hrs by SRB assay; format: functional, UO-31
[19] = test system: MCF7; assay: Cytotoxicity against human MCF7 cells assessed as growth level at 10 uM after 48 hrs by SRB assay; format: functional
[20] = test system: MDA-MB-231; assay: Cytotoxicity against human MDA-MB-231 cells assessed as growth level at 10 uM after 48 hrs by SRB assay; format: functional
[21] = Cytotoxicity against human BT549 cells assessed as growth level at 10 uM after 48 hrs by SRB assay; format: functional, BT-549
[22] = test system: T47D; assay: Cytotoxicity against human T47D cells assessed as growth level at 10 uM after 48 hrs by SRB assay; format: functional
[23] = test system: MDA-MB-468; assay: Cytotoxicity against human MDA-MB-468 cells assessed as growth level at 10 uM after 48 hrs by SRB assay; format: functional
[24] = test system: CCRF-CEM; assay: Cytotoxicity against human CCRF-CEM cells assessed as growth inhibition at 10 uM after 48 hrs by SRB assay; format: functional; settings: read-out: GI
[25] = Cytotoxicity against human RPMI8226 cells assessed as growth inhibition at 10 uM after 48 hrs by SRB assay; format: functional; settings: RPMI-8226, 48 h, read-out: GI
[26] = test system: SR; assay: Cytotoxicity against human SR cells assessed as growth inhibition at 10 uM after 48 hrs by SRB assay; format: functional; settings: read-out: GI
[27] = Cytotoxicity against human HOP62 cells assessed as growth inhibition at 10 uM after 48 hrs by SRB assay; format: functional; settings: HOP-62, 48 h, read-out: GI
[28] = Cytotoxicity against human HOP92 cells assessed as growth inhibition at 10 uM after 48 hrs by SRB assay; format: functional; settings: HOP-92, 48 h, read-out: GI
[29] = test system: NCI-H226; assay: Cytotoxicity against human NCI-H226 cells assessed as growth inhibition at 10 uM after 48 hrs by SRB assay; format: functional; settings: NCI-H226, 48 h, read-out: GI
[30] = test system: NCI-H322M; assay: Cytotoxicity against human NCI-H322M cells assessed as growth inhibition at 10 uM after 48 hrs by SRB assay; format: functional; settings: read-out: GI
[31] = test system: NCI-H460; assay: Cytotoxicity against human NCI-H460 cells assessed as growth inhibition at 10 uM after 48 hrs by SRB assay; format: functional; settings: NCI-H460, 48 h, read-out: GI
[32] = test system: NCI-H522; assay: Cytotoxicity against human NCI-H522 cells assessed as growth inhibition at 10 uM after 48 hrs by SRB assay; format: functional; settings: NCI-H522, 48 h, read-out: GI
[33] = Cytotoxicity against human HCT15 cells assessed as growth inhibition at 10 uM after 48 hrs by SRB assay; format: functional; settings: HCT-15, 48 h, read-out: GI
[34] = Cytotoxicity against human SF539 cells assessed as growth inhibition at 10 uM after 48 hrs by SRB assay; format: functional; settings: SF-539, 48 h, read-out: GI
[35] = Cytotoxicity against human SNB75 cells assessed as growth inhibition at 10 uM after 48 hrs by SRB assay; format: functional; settings: SNB-75, 48 h, read-out: GI
[36] = Cytotoxicity against human UACC257 cells assessed as growth inhibition at 10 uM after 48 hrs by SRB assay; format: functional; settings: UACC-257, 48 h, read-out: GI
[37] = Cytotoxicity against human IGROV1 cells assessed as growth inhibition at 10 uM after 48 hrs by SRB assay; format: functional; settings: IGROV-1, 48 h, read-out: GI
[38] = Cytotoxicity against human OVCAR8 cells assessed as growth inhibition at 10 uM after 48 hrs by SRB assay; format: functional; settings: OVCAR-8, 48 h, read-out: GI
[39] = Cytotoxicity against human NCI-ADR-RES cells assessed as growth inhibition at 10 uM after 48 hrs by SRB assay; format: functional; settings: read-out: GI
[40] = test system: A498; assay: Cytotoxicity against human A498 cells assessed as growth inhibition at 10 uM after 48 hrs by SRB assay; format: functional; settings: A498, 48 h, read-out: GI
[41] = test system: ACHN; assay: Cytotoxicity against human ACHN cells assessed as growth inhibition at 10 uM after 48 hrs by SRB assay; format: functional; settings: read-out: GI
[42] = test system: SN12C; assay: Cytotoxicity against human SN12C cells assessed as growth inhibition at 10 uM after 48 hrs by SRB assay; format: functional; settings: read-out: GI
[43] = test system: MDA-MB-468; assay: Cytotoxicity against human MDA-MB-468 cells assessed as growth inhibition at 10 uM after 48 hrs by SRB assay; format: functional; settings: MDA-MB-468, 48 h, read-out: GI
[44] = test system: CCRF-CEM; assay: Cytotoxicity against human CCRF-CEM cells assessed as growth level at 10 uM after 48 hrs by SRB assay; format: functional
[45] = Cytotoxicity against human HL-60(TB) cells assessed as growth level at 10 uM after 48 hrs by SRB assay; format: functional

## C=C1CC[C@@H]2[C@](C)(COC(C)=O)[C@H](OC(C)=O)CC[C@@]2(C)[C@@H]1CC(NCc1cccc(Cl)c1)C1=CCOC1=O (mixture of isomers)
[1]
  Activity: 21.89%
[2]
  Activity: 54.21%
[3]
  Activity: 77.89%
[4]
  Activity: 46.32%
[5]
  Activity: 75.37%
[6]
  Activity: 34.79%
[7]
  Activity: 37.72%
[8]
  Activity: 46.76%
[9]
  Activity: 74.12%
[10]
  Activity: 76.11%
[11]
  Activity: 76.6%
[12]
  Activity: 41.2%
[13]
  Activity: 99.69%
[14]
  Activity: 73.11%
[15]
  Activity: 50.51%
[16]
  Activity: 62.07%
[17]
  Activity: 63.29%
[18]
  Activity: 46.94%
[19]
  Activity: 42.95%
[20]
  Activity: 65%
[21]
  Activity: 49.66%
[22]
  Activity: 50.73%
[23]
  Activity: 25.62%
[24]
  inhibition of growth at 10 µM: 57.7%
[25]
  inhibition of growth at 10 µM: 72.8%
[26]
  inhibition of growth at 10 µM: 88.5%
[27]
  inhibition of growth at 10 µM: 44%
[28]
  inhibition of growth at 10 µM: 33.7%
[29]
  inhibition of growth at 10 µM: 53.7%
[30]
  inhibition of growth at 10 µM: 24.6%
[31]
  inhibition of growth at 10 µM: 65.2%
[32]
  inhibition of growth at 10 µM: 47.5%
[33]
  inhibition of growth at 10 µM: 62.3%
[34]
  inhibition of growth at 10 µM: 25.9%
[35]
  inhibition of growth at 10 µM: 14.1%
[36]
  inhibition of growth at 10 µM: 74.8%
[37]
  inhibition of growth at 10 µM: 35.9%
[38]
  inhibition of growth at 10 µM: 57.3%
[39]
  inhibition of growth at 10 µM: 39.7%
[40]
  inhibition of growth at 10 µM: 35.2%
[41]
  inhibition of growth at 10 µM: 58.4%
[42]
  inhibition of growth at 10 µM: 37.9%
[43]
  inhibition of growth at 10 µM: 74.4%
[44]
  Activity: 42.29%
[45]
  Activity: 21.57%

## C=C1CC[C@@H]2[C@](C)(COC(C)=O)[C@H](OC(C)=O)CC[C@@]2(C)[C@@H]1CC(NCc1ccc(F)cc1)C1=CCOC1=O (mixture of isomers)
[1]
  Activity: -0.37%
[2]
  Activity: 57.9%
[3]
  Activity: 50.01%
[4]
  Activity: 40.13%
[5]
  Activity: 72.54%
[6]
  Activity: 55.22%
[7]
  Activity: 37.04%
[8]
  Activity: 46.48%
[9]
  Activity: 64.45%
[10]
  Activity: 65.1%
[11]
  Activity: 77.79%
[12]
  Activity: 32.2%
[13]
  Activity: 99%
[14]
  Activity: 94.32%
[15]
  Activity: 80.59%
[16]
  Activity: 46.23%
[17]
  Activity: 66.64%
[18]
  Activity: 31.26%
[19]
  Activity: 16.58%
[20]
  Activity: 60.86%
[21]
  Activity: 28.73%
[22]
  Activity: 26.6%
[23]
  Activity: 27.52%
[24]
  inhibition of growth at 10 µM: 90.8%
[25]
  inhibition of growth at 10 µM: 98.7%
[26]
  inhibition of growth at 10 µM: 92.3%
[27]
  inhibition of growth at 10 µM: 21.2%
[28]
  inhibition of growth at 10 µM: 81.2%
[29]
  inhibition of growth at 10 µM: 59.9%
[30]
  inhibition of growth at 10 µM: 27.5%
[31]
  inhibition of growth at 10 µM: 44.8%
[32]
  inhibition of growth at 10 µM: 79.1%
[33]
  inhibition of growth at 10 µM: 63%
[34]
  inhibition of growth at 10 µM: 35.5%
[35]
  inhibition of growth at 10 µM: 41.9%
[36]
  inhibition of growth at 10 µM: 54.2%
[37]
  inhibition of growth at 10 µM: 51.6%
[38]
  inhibition of growth at 10 µM: 81.4%
[39]
  inhibition of growth at 10 µM: 71.8%
[40]
  inhibition of growth at 10 µM: 48.3%
[41]
  inhibition of growth at 10 µM: 49.1%
[42]
  inhibition of growth at 10 µM: 53.8%
[43]
  inhibition of growth at 10 µM: 72.5%
[44]
  Activity: 9.18%
[45]
  Activity: -9.52%
